The values below come from publication PMC4678576, “Optimisation of a triazolopyridine based histone demethylase inhibitor yields a potent and selective KDM2A (FBXL11) inhibitor” (MedChemComm, 2014).

The series is described as follows: Parallel artificial membrane permeation assay (PAMPA). It is filed as in vitro ADME. The following applies: for Papp: PAMPA, range over pH 7.4, 6.2, 5.0, read-out: membrane permeability (PAMPA), range over the pH values tested.

In the case of `COC(=O)c1ccnc(-c2cn([C@@H]3CCCN(C(=O)c4ccccc4)C3)nn2)c1` [Compound 37], the Papp was in the range of 45 to 56 ×10⁻⁶ cm/s, the “PAMPA Pe pH 5.0” value is reported as 56 10^−6 cm s^−1, the “PAMPA Pe pH 6.2” value was 45 10^−6 cm s^−1 and the “PAMPA Pe pH 7.4” value is listed as 52 10^−6 cm s^−1.
For `O=C(O)c1ccnc(-c2cn([C@@H]3CCCN(C(=O)c4ccccc4)C3)nn2)c1` [Compound 35], the Papp was in the range of 0.41 to 1.9 ×10⁻⁶ cm/s, the “PAMPA Pe pH 5.0” value was 1.9 10^−6 cm s^−1, the “PAMPA Pe pH 6.2” value was 0.41 10^−6 cm s^−1 and the “PAMPA Pe pH 7.4” value is on record as 0.69 10^−6 cm s^−1.
